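In this assay, cells in 96-well plates receive the compound at five concentrations for 48 hours. Endpoints are linearly interpolated between the surrounding concentrations. GI50 is the concentration that inhibits growth by half. TGI: total growth inhibition.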
Columns and labels:
Assay in all cases: growth of human tumour cells (NCI), 48 h
MDA-MB-231 breast = test system: MDA-MB-231 breast
UO-31 renal = test system: UO-31 renal
SK-MEL-28 melanoma = test system: SK-MEL-28 melanoma
HS 578T breast = test system: HS 578T breast
SK-MEL-5 melanoma = test system: SK-MEL-5 melanoma
OVCAR-3 ovarian = test system: OVCAR-3 ovarian
MCF7 breast = test system: MCF7 breast
MDA-MB-435 = test system: MDA-MB-435
PC-3 prostate = test system: PC-3 prostate
DU-145 prostate = test system: DU-145 prostate
SF-295 CNS = test system: SF-295 CNS
ACHN renal = test system: ACHN renal
HOP-92 NSCLC = test system: HOP-92 NSCLC
MOLT-4 leukemia = test system: MOLT-4 leukemia
SF-539 CNS = test system: SF-539 CNS
NCI-H23 lung = test system: NCI-H23 lung
U251 CNS = test system: U251 CNS
A498 renal = test system: A498 renal
NCI-H522 lung = test system: NCI-H522 lung
RPMI-8226 leukemia = test system: RPMI-8226 leukemia
OVCAR-5 ovarian = test system: OVCAR-5 ovarian
SNB-19 CNS = test system: SNB-19 CNS
RXF 393 renal = test system: RXF 393 renal
COLO 205 colon = test system: COLO 205 colon
UACC-257 melanoma = test system: UACC-257 melanoma
MALME-3M melanoma = test system: MALME-3M melanoma
SW-620 colon = test system: SW-620 colon
SK-OV-3 ovarian = test system: SK-OV-3 ovarian
SK-MEL-2 melanoma = test system: SK-MEL-2 melanoma
HCT-116 colon = test system: HCT-116 colon
NCI-H460 lung = test system: NCI-H460 lung
CCRF-CEM leukemia = test system: CCRF-CEM leukemia
EKVX NSCLC = test system: EKVX NSCLC
NCI/ADR-RES ovarian = test system: NCI/ADR-RES ovarian
TK-10 renal = test system: TK-10 renal
OVCAR-8 ovarian = test system: OVCAR-8 ovarian
KM12 colon = test system: KM12 colon
SF-268 CNS = test system: SF-268 CNS
IGROV1 ovarian = test system: IGROV1 ovarian
HT29 colon = test system: HT29 colon
786-0 renal = test system: 786-0 renal
BT-549 breast = test system: BT-549 breast
HOP-62 NSCLC = test system: HOP-62 NSCLC
SNB-75 CNS = test system: SNB-75 CNS
UACC-62 melanoma = test system: UACC-62 melanoma
SR leukemia = test system: SR leukemia
HCC-2998 colon = test system: HCC-2998 colon
T-47D breast = test system: T-47D breast
SN12C renal = test system: SN12C renal
OVCAR-4 ovarian = test system: OVCAR-4 ovarian
NCI-H226 lung = test system: NCI-H226 lung
K-562 leukemia = test system: K-562 leukemia
HL-60(TB) leukemia = test system: HL-60(TB) leukemia
M14 melanoma = test system: M14 melanoma
LOX IMVI melanoma = test system: LOX IMVI melanoma
A549 NSCLC = test system: A549 NSCLC
CAKI-1 renal = test system: CAKI-1 renal
HCT-15 colon = test system: HCT-15 colon

**Q.** `Brc1ccc2[nH]cc([C@H]3CN[C@@H](c4c[nH]c5ccc(Br)cc45)CN3)c2c1` was tested. Which GI50 (MDA-MB-231 breast) did it give?
**A.** The GI50 was 1.85 µM.

**Q.** And the TGI (MDA-MB-231 breast)?
**A.** Its TGI is 3.81 µM.

**Q.** What about the TGI (UO-31 renal) of the same compound?
**A.** Its TGI is 5.29 µM.

**Q.** And the TGI (SK-MEL-28 melanoma)?
**A.** Its TGI is greater than 52.6 µM.

**Q.** What about the TGI (HS 578T breast) of the same compound?
**A.** The TGI was 28.2 µM.

**Q.** And the TGI (SK-MEL-5 melanoma)?
**A.** The TGI was 6.77 µM.

**Q.** And the TGI (OVCAR-3 ovarian)?
**A.** Its TGI is 3.8 µM.

**Q.** What about the TGI (MCF7 breast) of the same compound?
**A.** The TGI was 3.3 µM.

**Q.** What about the TGI (MDA-MB-435) of the same compound?
**A.** Its TGI is 3.18 µM.

**Q.** What about the TGI (PC-3 prostate) of the same compound?
**A.** Its TGI is 5.27 µM.

**Q.** And the TGI (DU-145 prostate)?
**A.** The TGI was 5.25 µM.

**Q.** What about the GI50 (SF-295 CNS) of the same compound?
**A.** Its GI50 is 12.2 µM.

**Q.** And the TGI (SF-295 CNS)?
**A.** The TGI was 27.6 µM.

**Q.** And the TGI (ACHN renal)?
**A.** The TGI was 5.01 µM.

**Q.** What about the TGI (HOP-92 NSCLC) of the same compound?
**A.** The TGI was 6.05 µM.

**Q.** And the TGI (MOLT-4 leukemia)?
**A.** Its TGI is 4.95 µM.

**Q.** And the TGI (SF-539 CNS)?
**A.** Its TGI is 4.06 µM.

**Q.** What about the TGI (NCI-H23 lung) of the same compound?
**A.** The TGI was 3.62 µM.

**Q.** And the TGI (U251 CNS)?
**A.** Its TGI is 5.02 µM.

**Q.** And the TGI (A498 renal)?
**A.** Its TGI is 4.53 µM.

**Q.** And the TGI (NCI-H522 lung)?
**A.** The TGI was 3.27 µM.

**Q.** And the TGI (RPMI-8226 leukemia)?
**A.** Its TGI is 6.04 µM.

**Q.** And the GI50 (OVCAR-5 ovarian)?
**A.** The GI50 was 3.25 µM.

**Q.** And the TGI (OVCAR-5 ovarian)?
**A.** The TGI was 12 µM.

**Q.** What about the TGI (SNB-19 CNS) of the same compound?
**A.** The TGI was greater than 23.9 µM.

**Q.** And the TGI (RXF 393 renal)?
**A.** Its TGI is greater than 25.4 µM.

**Q.** What about the TGI (COLO 205 colon) of the same compound?
**A.** Its TGI is 3.24 µM.

**Q.** And the GI50 (UACC-257 melanoma)?
**A.** The GI50 was 7.39 µM.

**Q.** And the TGI (UACC-257 melanoma)?
**A.** Its TGI is 21.4 µM.

**Q.** What about the GI50 (MALME-3M melanoma) of the same compound?
**A.** Its GI50 is 2.79 µM.

**Q.** What about the TGI (MALME-3M melanoma) of the same compound?
**A.** The TGI was 15 µM.

**Q.** And the TGI (SW-620 colon)?
**A.** Its TGI is greater than 22.1 µM.

**Q.** And the TGI (SK-OV-3 ovarian)?
**A.** The TGI was greater than 23.5 µM.

**Q.** What about the TGI (SK-MEL-2 melanoma) of the same compound?
**A.** Its TGI is 5.54 µM.

**Q.** What about the TGI (HCT-116 colon) of the same compound?
**A.** The TGI was 4.68 µM.

**Q.** And the GI50 (NCI-H460 lung)?
**A.** The GI50 was 3.04 µM.

**Q.** And the TGI (NCI-H460 lung)?
**A.** Its TGI is 16.3 µM.

**Q.** And the TGI (CCRF-CEM leukemia)?
**A.** Its TGI is 6.11 µM.

**Q.** What about the TGI (EKVX NSCLC) of the same compound?
**A.** The TGI was 6.46 µM.

**Q.** And the TGI (NCI/ADR-RES ovarian)?
**A.** Its TGI is 4.52 µM.

**Q.** What about the TGI (TK-10 renal) of the same compound?
**A.** Its TGI is 4.78 µM.

**Q.** And the TGI (OVCAR-8 ovarian)?
**A.** Its TGI is 3.7 µM.

**Q.** What about the TGI (KM12 colon) of the same compound?
**A.** The TGI was 3.25 µM.

**Q.** And the TGI (SF-268 CNS)?
**A.** The TGI was 9.05 µM.

**Q.** And the TGI (IGROV1 ovarian)?
**A.** Its TGI is 3.78 µM.

**Q.** What about the TGI (HT29 colon) of the same compound?
**A.** The TGI was 4.68 µM.

**Q.** What about the TGI (786-0 renal) of the same compound?
**A.** Its TGI is 5.68 µM.

**Q.** And the TGI (BT-549 breast)?
**A.** The TGI was greater than 62 µM.

**Q.** And the TGI (HOP-62 NSCLC)?
**A.** Its TGI is greater than 41.2 µM.

**Q.** And the GI50 (SNB-75 CNS)?
**A.** Its GI50 is 1.5 µM.

**Q.** What about the TGI (SNB-75 CNS) of the same compound?
**A.** The TGI was 8.46 µM.

**Q.** What about the TGI (UACC-62 melanoma) of the same compound?
**A.** The TGI was greater than 45.9 µM.

**Q.** What about the TGI (SR leukemia) of the same compound?
**A.** The TGI was 5.2 µM.

**Q.** What about the TGI (HCC-2998 colon) of the same compound?
**A.** The TGI was 3.17 µM.

**Q.** What about the GI50 (T-47D breast) of the same compound?
**A.** Its GI50 is 3.62 µM.

**Q.** What about the TGI (T-47D breast) of the same compound?
**A.** Its TGI is 18 µM.

**Q.** What about the TGI (SN12C renal) of the same compound?
**A.** The TGI was 9.89 µM.

**Q.** And the TGI (OVCAR-4 ovarian)?
**A.** The TGI was 4.44 µM.

**Q.** What about the TGI (NCI-H226 lung) of the same compound?
**A.** Its TGI is 7.76 µM.

**Q.** And the TGI (K-562 leukemia)?
**A.** Its TGI is 4.54 µM.

**Q.** What about the TGI (HL-60(TB) leukemia) of the same compound?
**A.** Its TGI is 4.08 µM.

**Q.** And the TGI (M14 melanoma)?
**A.** Its TGI is 3.38 µM.

**Q.** And the TGI (LOX IMVI melanoma)?
**A.** Its TGI is 2.82 µM.

**Q.** And the TGI (A549 NSCLC)?
**A.** The TGI was 7.17 µM.

**Q.** What about the TGI (CAKI-1 renal) of the same compound?
**A.** The TGI was 4.88 µM.

**Q.** What about the TGI (HCT-15 colon) of the same compound?
**A.** The TGI was 3.81 µM.
